Key:
[1] = test system: octopamine receptor sites; test: 3H-OA binding to ventral nerve cord / synaptosomal membrane protein; set-up: species or system American cockroach (Periplaneta americana); conditions: for cpm 3H-OA/500 μg protein: Table 1, solvent control 1280 ± 259
Procedure: Different concentrations of unlabeled octopamine (OA) (20, 30, 40, 50, 60, 100 ng) were tested on the binding activity as a positive control. Test chemicals were dissolved in acetone before the assay. Different concentrations of the test chemicals were added directly to the protein preparation from ventral nerve cord. The same amount of solvent (1 μl 0.1%) were added to the control samples. All assays with test chemicals were run in the presence and absence of 50 ng OA. All chemicals were added to the protein extract 20 min prior the addition of radio labeled ^3H-OA(100,000 cpm/sample). After 30 min at 24° C. of the addition of ^3H-OA, the reaction was stopped by the addition of ice-cold Tris buffer, and the samples were filtered through GF/C membrane using water vacuum. After two washes each with 5 ml Tris buffer, the membrane was removed, air dried and the radioactivity was counted in 4 ml liquid scintillation solution. The specific binding was calculated as the difference between the values in the presence and absence of unlabeled OA. All data are calculated as the mean±standard deviation of 5 assays.
Additional tests were conducted on radio labeled octopamine using other purified naturally occurring materials as given in Tables 2 and 3.

American cockroach [2] = test: Lethal effect of injected test chemicals; assay type: in vivo; conditions: dead/10
Procedure: Further studies were conducted to determine the LD 50 of purified naturally occurring plant essential oils and/or their constituents. […] Ten roaches per dose were used. Another group of ten roaches received the same volume of vehicle only (0.5 μl) and used as a control group. Mortality was recorded 24, 48, and 72 hours after exposure.

[3] = test system: heart of American cockroach (octopamine receptors); test: Heartbeat after application to thoracic segment; assay type: in vivo; conditions: mean ±SD of three roaches
Procedure: To further establish the effect of the purified naturally occurring plant essential oils and/or their constituents on the American cockroach, a 300 μg amount of the chemical was applied to the thoracic segment of an intact and alive American cockroach. The heart beats/30 seconds was measured. The heart of the cockroach is known to have a high concentration of octopamine receptors and the heart beat is considered an important measurement to indicate the effect of the applied chemicals to the octopamine receptors.

American cockroach [4] = test: Cross walk jar test on pre-treated surface; assay type: in vivo; conditions: Periplaneta americana, 24 h
Procedure: In the test, a known amount of the test material was dissolved in a known volume of acetone and applied to small jars and all inner bottom surfaces were covered. The bottom surface of each jar is approximately 250 cm^2. One hour after the acetone had completely evaporated, five American cockroaches were introduced to each jar. Control jars were treated exactly as above but with the known amount of acetone only.
The results of the “cross walk” jar tests are in Table 8 in which the “4-blend” was dispersed as an aerosol and a dust in the jar.
In this test, the acetone solution of the test material was placed in the jar and the roach inserted into the jar after the acetone had evaporated.
Mortality was measured 24 hours after exposure.
The “4-blend” and the individual constituents of the “4-blend” were tested using 10 cockroaches for each “cross walk” treatment. In addition, pyrethrins were tested separately and mixed with the various components.
A concentration of 100 mg/jar was used for each individual alone. In the co-treatment experiment without pyrethrins, 20 mg/jar for each chemical was used. In the cotreatment experiment with pyrethrins, 20 mg/jar for the naturally occurring plant material was used. Pyrethrins was used at 2 mg/jar. […] It was noted above that the mortality is dependent upon concentration. […] Some synergism is found between pyrethrins and either α-terpineol or benzyl alcohol.

[5] = test system: 2nd instar green peach aphid nymphs; test: Cabbage leaf disc bioassay; assay type: in vivo
Procedure: A bioassay similar to that for S. litura larvae was used for additional larvae. Cabbage leaf discs were dipped in emulsified aqueous solutions, diluted 1:200 in water, on which 2nd instar green peach aphid nymphs were placed. For each treatment there was 10 aphids per disc with 5 replicates; each experiment was replicated in time (successive days) from 3-5 times. After 24 hours, aphids were reported as being (1) on the leaf disc and feeding; (2) alive, but walking off the disc; or (3) dead. In the field, aphids which cease feeding and abandon a host plant are very unlikely to survive.

American cockroaches = test: Cross walk testing with eugenol in acetone or Isopar M; assay type: in vivo, American cockroach; set-up: KD (knockdown), of 5: unit not given beside the values
Procedure: Additional “cross walk” testing was conducted with eugenol. Table 18 provides data for 5% (by volume) eugenol in acetone and Table 19 provides data for 1% eugenol in acetone wherein five (5) American cockroaches were placed in the screened jars after the acetone had evaporated. IM=immobilized; KD=knockdown; D=dead; L=live (no effect).
Table 20 provides data for 5% (by volume) eugenol in 95% Isopar M and Table 21 provides data for 1% (by volume) eugenol in 99% Isopar M. Isopar M is an isoparaffinic hydrocarbon sold by Exxon Corporation.

[6] = 1% eugenol in 99% Isopar M, 2 min
[7] = 1% eugenol in 99% Isopar M, 5 min
[8] = 1% eugenol in 99% Isopar M, 45 min
[9] = 5% eugenol in 95% Isopar M, 2 min
[10] = 5% eugenol in 95% Isopar M, 5 min

## C=CCc1ccc(O)c(OC)c1 [eugenol]
[1]; 300 ng test chemical
  cpm 3H-OA/500 μg protein: 818 ± 93 cpm 3H-OA/500 μg protein
[1]; 500 ng test chemical
  cpm 3H-OA/500 μg protein: 730 ± 59 cpm 3H-OA/500 μg protein
[1]; 700 ng test chemical
  cpm 3H-OA/500 μg protein: 453 ± 39 cpm 3H-OA/500 μg protein
[1]; 1000 ng test chemical
  cpm 3H-OA/500 μg protein: 226 ± 15 cpm 3H-OA/500 μg protein
[1]; 1500 ng test chemical
  cpm 3H-OA/500 μg protein: 200 ± 17 cpm 3H-OA/500 μg protein
[1]; based on the binding data of Tables 1-3
  classification with respect to octopamine receptor sites (OAR): high OAR antagonists
American cockroach [2]; 300 μg
  Mortality 24 hr after treatment: 2/10
American cockroach [2]; 400 μg
  Mortality 24 hr after treatment: 3/10
American cockroach [2]; 500 μg/roach injected into thoracic and abdominal segments, 24 hr.
  Mortality: 6/10
American cockroach [2]; 500 μg/roach injected, 48 hr.
  Mortality: 6/10
American cockroach [2]; 500 μg/roach injected, 72 hr., control 1/10
  Mortality: 6/10
American cockroach [2]; 500 μg
  Mortality 24 hr after treatment: 5/10
American cockroach [2]; 600 μg
  Mortality 24 hr after treatment: 8/10
American cockroach [2]; 700 μg
  Mortality 24 hr after treatment: 9/10
[3]; 300 μg applied to thoracic segment
  Heart beat/30 sec 30 min after treatment: 24 ± 1 beat/30 sec
[3]; baseline of the same roaches
  Heart beat/30 sec before treatment: 55 ± 3 beat/30 sec
American cockroach [4]
  mortality at 100 mg: 100%
[5]; 1:200 dilution
  activity on green peach aphid nymphs, in words: somewhat more active
[5]; diluted 1:200 in water, after 24 hours, n = 250, Table 16, control 23.4
  Percentage of aphids Walking (off disc): 38.3%
[5]; diluted 1:200 in water, after 24 hours, n = 250, Table 16, control 24.8
  Percentage of aphids Dead: 44.3%
[5]; diluted 1:200 in water, after 24 hours, n = 250, Table 16, control 51.7
  Percentage of aphids Feeding: 17.7%
American cockroaches; [6]
  D (dead), of 5: 2/5
  IM (immobilized), of 5: 1/5
  KD (knockdown), of 5: 1/5
American cockroaches; [7]
  D (dead), of 5: 3/5
  IM (immobilized), of 5: 1/5
American cockroaches; 1% eugenol in 99% Isopar M, 15 min
  IM (immobilized), of 5: 2/5 IM
American cockroaches; 1% eugenol in 99% Isopar M, 30 min
  IM (immobilized), of 5: 2/5 IM
American cockroaches; [8]
  D (dead), of 5: 4/5
  IM (immobilized), of 5: 1/5
American cockroaches; 1% eugenol in 99% Isopar M, 1 hr.
  IM (immobilized), of 5: 1/5 IM
American cockroaches; 1% eugenol in 99% Isopar M, 1.5 hr.
  D (dead), of 5: 5/5 D
American cockroaches; 1% eugenol in acetone, 2 min
  L (live, no effect), of 5: 5/5 L
American cockroaches; 1% eugenol in acetone, 30 min
  L (live, no effect), of 5: 5/5 L
American cockroaches; 1% eugenol in acetone, 45 min
  IM (immobilized), of 5: 3/5 IM
American cockroaches; 1% eugenol in acetone, 1 hr.
  IM (immobilized), of 5: 3/5
  KD (knockdown), of 5: 1/5
American cockroaches; 1% eugenol in acetone, 1.5 hr.
  IM (immobilized), of 5: 3/5
  KD (knockdown), of 5: 1/5
American cockroaches; 1% eugenol in acetone, 2 hr.
  IM (immobilized), of 5: 3/5
  KD (knockdown), of 5: 1/5
American cockroaches; 1% eugenol in acetone, 4 hr.
  IM (immobilized), of 5: 3/5
  KD (knockdown), of 5: 1/5
American cockroaches; 1% eugenol in acetone, 24 hr., (KD/IM recover)
  IM (immobilized), of 5: 2/5 IM (KD/IM recover)
American cockroaches; [9]
  D (dead), of 5: 2/5
  IM (immobilized), of 5: 1/5
American cockroaches; [10]
  D (dead), of 5: 4/5
  IM (immobilized), of 5: 1/5
American cockroaches; 5% eugenol in 95% Isopar M, 10 min
  D (dead), of 5: 5/5 D
American cockroaches; 5% eugenol in acetone, 2 min
  IM (immobilized), of 5: 1/5 IM
American cockroaches; 5% eugenol in acetone, 5 min
  IM (immobilized), of 5: 1/5 IM
American cockroaches; 5% eugenol in acetone, 15 min
  IM (immobilized), of 5: 3/5 IM
American cockroaches; 5% eugenol in acetone, 30 min
  IM (immobilized), of 5: 3/5
  KD (knockdown), of 5: 1/5
American cockroaches; 5% eugenol in acetone, 45 min
  IM (immobilized), of 5: 3/5
  KD (knockdown), of 5: 1/5
American cockroaches; 5% eugenol in acetone, 1 hr.
  IM (immobilized), of 5: 4/5
  KD (knockdown), of 5: 1/5
American cockroaches; 5% eugenol in acetone, 1.5 hr.
  IM (immobilized), of 5: 4/5
  KD (knockdown), of 5: 1/5
American cockroaches; 5% eugenol in acetone, 2 hr.
  IM (immobilized), of 5: 4/5
  KD (knockdown), of 5: 1/5
American cockroaches; 5% eugenol in acetone, 4 hr.
  D (dead), of 5: 4/5
  KD (knockdown), of 5: 1/5
American cockroaches; 5% eugenol in acetone, 24 hr.
  D (dead), of 5: 5/5 D
American cockroaches; 5% eugenol, in both modes of use (acetone, Isopar M)
  effectiveness as a pesticide for American cockroaches, in words: highly effective

From patent US6841577B2, “Pesticidal activity of plant essential oils and their constituents” (Ecosmart Technologies, Inc., priority 1999, dated 2005)
